From ChEMBL document CHEMBL1201862, “PubChem BioAssay data set” (2004)
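1) Cells in 96-well plates. 2) Compound, 48 h, 5 concentrations. 3) Linear interpolation between surrounding doses. 4) Unreached endpoint = highest concentration. At the GI50, growth is halved.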 Activity calls are given as the source filed them. Rule as the data show it: active = GI50 up to about 1.1 µM and inactive = higher.

What was measured:
Assay in all cases: NCI-60 cell line screen, 48 h
[1] = system: Malme-3M
[2] = system: A549
[3] = system: NCI/ADR-RES
[4] = system: 786-0
[5] = system: SK-MEL-5
[6] = system: HCC 2998
[7] = system: M14
[8] = system: MOLT-4
[9] = system: NCI-H23
[10] = system: TK-10
[11] = system: A498
[12] = system: CCRF-CEM
[13] = system: NCI-H226
[14] = system: MDA-MB-435
[15] = system: MDA-MB-231
[16] = system: RXF 393
[17] = system: OVCAR-5
[18] = system: SK-OV-3
[19] = system: SNB-75
[20] = system: SK-MEL-2

SMILES | GI50 [1] | GI50 [2] | GI50 [3] | GI50 [4] | GI50 [5] | GI50 [6] | GI50 [7] | GI50 [8] | GI50 [9] | GI50 [10] | GI50 [11] | GI50 [12] | GI50 [13] | GI50 [14] | GI50 [15] | GI50 [16] | GI50 [17] | GI50 [18] | GI50 [19] | GI50 [20]
CCC1CN2CCc3cc(OC)c(OC)cc3C2CC1CC1c2cc(OC)c(OC)cc2CCN1C(=O)C(Cc1c[nH]c2ccccc12)NC(=O)OC(C)(C)C (centres undefined) | 1.74 µM (inactive) | 3.61 µM (inactive) | 1.63 µM (inactive) | 2.61 µM (inactive) | 1.67 µM (inactive) | 2.63 µM (inactive) | 1.79 µM (inactive) | 2.47 µM (inactive) | 7.67 µM (inactive) | 7.83 µM (inactive) | 6.65 µM (inactive) | 3.1 µM (inactive) | 13.4 µM (inactive) | 1.78 µM (inactive) | 2.16 µM (inactive) | 2.67 µM (inactive) | 8.81 µM (inactive) | 4.8 µM (inactive) | 2.59 µM (inactive) | 2.67 µM (inactive)
N#CC(C#N)SCc1ccccc1 | 47.8 µM (inactive) | 16.6 µM (inactive) | 6.64 µM (inactive) | 15.7 µM (inactive) | 11.9 µM (inactive) | 61.2 µM (inactive) | 11.5 µM (inactive) | 1.67 µM (inactive) | 10.5 µM (inactive) | 26.5 µM (inactive) | > 71.4 µM (inactive) | 1.7 µM (inactive) | 30.1 µM (inactive) | 17.6 µM (inactive) | 2.66 µM (inactive) | 26.8 µM (inactive) | 17.3 µM (inactive) | 24.4 µM (inactive) | 38 µM (inactive) | 7.36 µM (inactive)
COc1c(/C=C/C=O)cc2c(c1OC)OCO2 | 20.7 µM (inactive) | > 100 µM (inactive) | 33.3 µM (inactive) | 54.1 µM (inactive) | 21.1 µM (inactive) | 29.4 µM (inactive) | 24.2 µM (inactive) | 20.5 µM (inactive) | 30.4 µM (inactive) | 40.4 µM (inactive) | 1.21 µM (inactive) | 22.1 µM (inactive) | 2.96 µM (inactive) | 49.3 µM (inactive) | 31.6 µM (inactive) | > 100 µM (inactive) | 7.41 µM (inactive) | 60.8 µM (inactive) | > 100 µM (inactive) | 23.4 µM (inactive)
COc1c2c(nc3ccccc13)-c1cc(C(CC(=O)OC(C)(C)C)C(=O)OC(C)C)c(CO)c(=O)n1C2 (centres undefined) | > 100 µM (inactive) | 52.8 µM (inactive) | 24.5 µM (inactive) | 30.5 µM (inactive) | 43.5 µM (inactive) | > 100 µM (inactive) | 39 µM (inactive) | 3.67 µM (inactive) | 55.7 µM (inactive) | > 100 µM (inactive) | 57.3 µM (inactive) | 4.48 µM (inactive) | 67.8 µM (inactive) | > 94.2 µM (inactive) | > 100 µM (inactive) | > 100 µM (inactive) | 98.6 µM (inactive) | > 40.2 µM (inactive) | > 93.8 µM (inactive) | > 100 µM (inactive)
COc1ccc(/C=C2/CSCC3=C2N=C(S)NC3c2ccc(OC)c(OC)c2OC)c(OC)c1OC (centres undefined) | 23.2 µM (inactive) | 24.8 µM (inactive) | 7.43 µM (inactive) | 13.8 µM (inactive) | 11.1 µM (inactive) | 31.3 µM (inactive) | 12.6 µM (inactive) | 3.05 µM (inactive) | 18.9 µM (inactive) | 26.2 µM (inactive) | 19 µM (inactive) | 3.4 µM (inactive) | 35 µM (inactive) | 7.82 µM (inactive) | 17.7 µM (inactive) | 14.4 µM (inactive) | 25.2 µM (inactive) | 49.7 µM (inactive) | 0.209 µM (active) | 22.8 µM (inactive)
C[n+]1cn(-c2ccc([N+](=O)[O-])cn2)c2ccccc21 | > 100 µM (inactive) | > 100 µM (inactive) | > 100 µM (inactive) | > 100 µM (inactive) | > 100 µM (inactive) | > 100 µM (inactive) | > 100 µM (inactive) | > 100 µM (inactive) | > 100 µM (inactive) | > 100 µM (inactive) | > 100 µM (inactive) | > 100 µM (inactive) | > 100 µM (inactive) | > 100 µM (inactive) | > 100 µM (inactive) | > 100 µM (inactive) | > 100 µM (inactive) | > 100 µM (inactive) | > 100 µM (inactive) | > 100 µM (inactive)
N#Cc1c(C#N)c(-c2ccccc2)n(Cc2ccccc2)c1N | > 100 µM (inactive) | > 100 µM (inactive) | > 100 µM (inactive) | 35 µM (inactive) | > 100 µM (inactive) | > 100 µM (inactive) | > 100 µM (inactive) | > 100 µM (inactive) | > 100 µM (inactive) | > 100 µM (inactive) | > 100 µM (inactive) | > 100 µM (inactive) | > 100 µM (inactive) | > 100 µM (inactive) | 26.9 µM (inactive) | 48.6 µM (inactive) | > 100 µM (inactive) | > 100 µM (inactive) | 14.4 µM (inactive) | > 100 µM (inactive)
Cc1cc(NS(=O)(=O)c2ccc(Nc3c4ccccc4nc4ccc(C(=O)Nc5ccc(S(N)(=O)=O)cc5)cc34)cc2)no1 | > 100 µM (inactive) | > 100 µM (inactive) | > 100 µM (inactive) | > 100 µM (inactive) | > 100 µM (inactive) | > 100 µM (inactive) | > 100 µM (inactive) | > 100 µM (inactive) | > 100 µM (inactive) | > 100 µM (inactive) | > 100 µM (inactive) | > 100 µM (inactive) | > 100 µM (inactive) | > 100 µM (inactive) | > 100 µM (inactive) | > 100 µM (inactive) | > 100 µM (inactive) | > 100 µM (inactive) | > 100 µM (inactive) | > 100 µM (inactive)
CCCCCOc1ccc(NC2=C(Cl)C(=O)c3c(O)ccc(O)c3C2=O)cc1 | 2.49 µM (inactive) | > 10 µM (inactive) | 6.04 µM (inactive) | 1.6 µM (inactive) | 5.43 µM (inactive) | 2.65 µM (inactive) | 3.03 µM (inactive) | 3.7 µM (inactive) | 3.27 µM (inactive) | 5.97 µM (inactive) | > 10 µM (inactive) | 3.52 µM (inactive) | > 10 µM (inactive) | 2.24 µM (inactive) | 3.35 µM (inactive) | 4.71 µM (inactive) | > 10 µM (inactive) | > 10 µM (inactive) | > 10 µM (inactive) | > 10 µM (inactive)
CC(C)=CCc1c2c(c(O)c3c(=O)c4c(oc13)-c1ccc(O)cc1OC4C=C(C)C)C=CC(C)(C)O2 (centres undefined) | 19.3 µM (inactive) | 10.8 µM (inactive) | 16.9 µM (inactive) | 11.4 µM (inactive) | 14.8 µM (inactive) | 3.34 µM (inactive) | 18 µM (inactive) |  | 6.31 µM (inactive) | 14.8 µM (inactive) | 19.5 µM (inactive) | 3.99 µM (inactive) | 21.9 µM (inactive) | 10.6 µM (inactive) | 14.2 µM (inactive) | 7.29 µM (inactive) | 20.2 µM (inactive) | 18.5 µM (inactive) | 11.9 µM (inactive) | 12.6 µM (inactive)
O=C(CSCC(=O)N/N=C/c1ccncc1)N/N=C/c1ccncc1 | > 100 µM (inactive) | > 100 µM (inactive) | > 100 µM (inactive) | > 100 µM (inactive) | > 100 µM (inactive) | > 100 µM (inactive) | > 100 µM (inactive) | > 100 µM (inactive) | > 100 µM (inactive) | > 100 µM (inactive) | > 100 µM (inactive) | > 100 µM (inactive) | > 100 µM (inactive) | > 100 µM (inactive) | > 100 µM (inactive) | > 100 µM (inactive) | > 100 µM (inactive) | > 100 µM (inactive) | > 100 µM (inactive) | > 100 µM (inactive)
CC(=O)NNc1nc(C)c(C(/C=C/c2ccc([N+](=O)[O-])cc2)=N/NC(N)=O)s1 | > 100 µM (inactive) | > 100 µM (inactive) | > 100 µM (inactive) | > 100 µM (inactive) | > 100 µM (inactive) | > 100 µM (inactive) | > 100 µM (inactive) | > 100 µM (inactive) | > 100 µM (inactive) | > 100 µM (inactive) | > 100 µM (inactive) | > 100 µM (inactive) | > 100 µM (inactive) | > 100 µM (inactive) | > 100 µM (inactive) | > 100 µM (inactive) | > 100 µM (inactive) | > 100 µM (inactive) | > 100 µM (inactive) | > 100 µM (inactive)
Cc1ccc(S(=O)(=O)NC(CO)C(=O)O)cc1 (centres undefined) | > 100 µM (inactive) | > 100 µM (inactive) | > 100 µM (inactive) | > 100 µM (inactive) | > 100 µM (inactive) | > 100 µM (inactive) | > 100 µM (inactive) | > 100 µM (inactive) | > 100 µM (inactive) | > 100 µM (inactive) | > 100 µM (inactive) | > 100 µM (inactive) | > 100 µM (inactive) | > 100 µM (inactive) | > 100 µM (inactive) | > 100 µM (inactive) | > 100 µM (inactive) | > 100 µM (inactive) | > 100 µM (inactive) | > 100 µM (inactive)
COc1cc(OCCN(C)C)c2[nH]c(C(=O)N3CC(CCl)c4ccc(N)cc43)cc2c1 (centres undefined) | 0.0904 µM (active) | 0.0377 µM (active) | 0.0376 µM (active) | 0.0202 µM (active) | 0.0342 µM (active) | 0.0265 µM (active) | 0.0632 µM (active) | < 0.01 µM (active) | 0.0269 µM (active) | 0.0973 µM (active) | 0.201 µM (active) | 0.0199 µM (active) | 0.0865 µM (active) | 0.0475 µM (active) | 0.0912 µM (active) | 0.0204 µM (active) | 0.0656 µM (active) | 1.04 µM (active) | 0.0676 µM (active) | 0.0381 µM (active)
